Data taken from US10160747B2, “Compounds and methods for kinase modulation, and indications therefor” (Plexxikon Inc., priority 2016, dated 2018).

Key:
[1] = test system: MOLM-14 F691L (endogenous FLT3 ITD and transfected FLT3 F691L); assay: MOLM-14 F691L cell proliferation assay (CellTiter-Glo); format: cell-based; details: Homo sapiens, MOLM-14, 72 h; 3 d growth, GMean
In short: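 MOLM-14 cells (FLT3 ITD) carrying D835Y or F691L, 1×10^4 cells/well, eight 1:3 dilutions from 1 μM final, 0.2% DMSO, 3 days at 37 °C, 5% CO2. Viability by CellTiter-Glo luminescence (ATP content); IC50 from concentration-response.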

[2] = molecular target: T1, c-KIT (Homo sapiens, UniProt P10721); assay: c-KIT recombinant enzyme kinase assay (AlphaScreen); format: biochemical; details: 100 ATP, 8 pt
T1 construct: purchased Millipore 14-559K
T1 sequence (P10721 26-976): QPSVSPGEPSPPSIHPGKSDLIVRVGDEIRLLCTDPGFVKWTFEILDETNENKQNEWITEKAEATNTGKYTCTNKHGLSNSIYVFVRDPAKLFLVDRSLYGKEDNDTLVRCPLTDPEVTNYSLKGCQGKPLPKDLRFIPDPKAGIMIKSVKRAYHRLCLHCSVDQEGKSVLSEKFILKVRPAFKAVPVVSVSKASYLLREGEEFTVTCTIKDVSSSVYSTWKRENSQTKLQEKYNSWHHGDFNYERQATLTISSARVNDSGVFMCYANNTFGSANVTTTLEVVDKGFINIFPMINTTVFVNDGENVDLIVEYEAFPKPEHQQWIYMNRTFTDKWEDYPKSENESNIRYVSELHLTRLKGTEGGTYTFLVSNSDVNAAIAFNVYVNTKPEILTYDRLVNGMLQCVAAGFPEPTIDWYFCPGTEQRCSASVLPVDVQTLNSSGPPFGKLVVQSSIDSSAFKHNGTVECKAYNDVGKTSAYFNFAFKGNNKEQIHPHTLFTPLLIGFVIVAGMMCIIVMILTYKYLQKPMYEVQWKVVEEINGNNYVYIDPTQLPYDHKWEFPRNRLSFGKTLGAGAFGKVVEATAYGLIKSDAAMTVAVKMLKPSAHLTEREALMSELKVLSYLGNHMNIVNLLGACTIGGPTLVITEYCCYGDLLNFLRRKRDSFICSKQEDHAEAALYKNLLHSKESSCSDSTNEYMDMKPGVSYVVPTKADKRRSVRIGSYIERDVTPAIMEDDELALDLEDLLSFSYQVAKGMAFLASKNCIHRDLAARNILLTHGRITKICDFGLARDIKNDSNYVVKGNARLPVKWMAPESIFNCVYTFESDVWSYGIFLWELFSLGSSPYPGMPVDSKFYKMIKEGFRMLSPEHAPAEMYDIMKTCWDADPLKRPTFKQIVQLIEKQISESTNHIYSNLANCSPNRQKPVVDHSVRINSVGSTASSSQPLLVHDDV
In short: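 IC50 values come from AlphaScreen proximity signal: phosphorylated biotin-poly(Glu4-Tyr) (30 nM) bridges streptavidin donor and anti-phosphotyrosine PY20 acceptor beads. Enzyme reactions ran at 100 μM ATP for c-KIT versus 10 μM for both FLT3 mutants (ITD, D835Y); beads added in stop buffer, room temperature.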

| IC50 [1] | IC50 [2] | SMILES |
| --- | --- | --- |
| 0.0001 to 10 µM | – | COc1ncc(NC(=O)Cc2ccc(-c3cnc4[nH]c(-c5ccc(C#N)nc5)cc4c3)cc2F)cc1C(F)(F)F [Compound P-0011, 2-[4-[2-(6-cyano-3-pyridyl)-1H-pyrrolo[2,3-b]pyridin-5-yl]-2-fluoro-phenyl]-N-[6-methoxy-5-(trifluoromethyl)-3-pyridyl]acetamide] |
| 0.0001 to 10 µM | 0.0001 to 10 µM | COc1ncc(NC(=O)Cc2ccc(-c3cnc4[nH]c(-c5ccnc(C#N)c5)cc4c3)cc2F)cc1C(F)(F)F [Compound P-0013, 2-[4-[2-(2-cyano-4-pyridyl)-1H-pyrrolo[2,3-b]pyridin-5-yl]-2-fluoro-phenyl]-N-[6-methoxy-5-(trifluoromethyl)-3-pyridyl]acetamide] |
| 0.0001 to 10 µM | – | COc1ncc(NC(=O)Cc2ccc(-c3cnc4[nH]c(-c5ccc(C#N)nc5)cc4c3)c(F)c2)cc1C(F)(F)F [Compound P-0014, 2-[4-[2-(6-cyano-3-pyridyl)-1H-pyrrolo[2,3-b]pyridin-5-yl]-3-fluoro-phenyl]-N-[6-methoxy-5-(trifluoromethyl)-3-pyridyl]acetamide] |
| 0.0001 to 10 µM | – | COc1ncc(NC(=O)Cc2ccc(-c3cnc4[nH]c(-c5cnn(C(F)F)c5)cc4c3)cc2F)cc1C(F)(F)F [Compound P-0015, 2-[4-[2-[1-(difluoromethyl)pyrazol-4-yl]-1H-pyrrolo[2,3-b]pyridin-5-yl]-2-fluoro-phenyl]-N-[6-methoxy-5-(trifluoromethyl)-3-pyridyl]acetamide] |
| 0.0001 to 10 µM | – | COc1ncc(NC(=O)Cc2ccc(-c3cnc4[nH]c(-c5ccnc(C#N)c5)cc4c3)c(F)c2)cc1C(F)(F)F [Compound P-0016, 2-[4-[2-(2-cyano-4-pyridyl)-1H-pyrrolo[2,3-b]pyridin-5-yl]-3-fluoro-phenyl]-N-[6-methoxy-5-(trifluoromethyl)-3-pyridyl]acetamide] |
| 0.0001 to 10 µM | 0.0001 to 10 µM | Cn1cc(Nc2ncc(-c3ccc(CC(=O)Nc4cc(C(F)(F)F)ccn4)cc3F)cn2)cn1 [Compound P-0017, 2-[3-fluoro-4-[2-[(1-methylpyrazol-4-yl)amino]pyrimidin-5-yl]phenyl]-N-[4-(trifluoromethyl)-2-pyridyl]acetamide] |
| – | 0.0001 to 10 µM | Cn1cnc(Nc2ncc(-c3ccc(CC(=O)Nc4cc(C(F)(F)F)ccn4)cc3F)cn2)c1 [Compound P-0018, 2-[3-fluoro-4-[2-[(1-methylimidazol-4-yl)amino]pyrimidin-5-yl]phenyl]-N-[4-(trifluoromethyl)-2-pyridyl]acetamide] |
| 0.0001 to 10 µM | 0.0001 to 10 µM | Cn1cc(Nc2ncc(-c3cc(F)c(CC(=O)Nc4cc(C(F)(F)F)ccn4)cc3F)cn2)cn1 [Compound P-0019, 2-[2,5-difluoro-4-[2-[(1-methylpyrazol-4-yl)amino]pyrimidin-5-yl]phenyl]-N-[4-(trifluoromethyl)-2-pyridyl]acetamide] |
| – | 0.0001 to 10 µM | Cn1cnc(Nc2ncc(-c3cc(F)c(CC(=O)Nc4cc(C(F)(F)F)ccn4)cc3F)cn2)c1 [Compound P-0020, 2-[2,5-difluoro-4-[2-[(1-methylimidazol-4-yl)amino]pyrimidin-5-yl]phenyl]-N-[4-(trifluoromethyl)-2-pyridyl]acetamide] |
| – | 0.0001 to 10 µM | O=C(Cc1cc(F)c(-c2cnc(Nc3cnn(C(F)F)c3)nc2)cc1F)Nc1cc(C(F)(F)F)ccn1 [Compound P-0021, 2-[4-[2-[[1-(difluoromethyl)pyrazol-4-yl]amino]pyrimidin-5-yl]-2,5-difluoro-phenyl]-N-[4-(trifluoromethyl)-2-pyridyl]acetamide] |
| 0.0001 to 10 µM | 0.0001 to 10 µM | Cn1cnc(Nc2ncc(-c3ccc(CC(=O)Nc4cc(C(F)(F)F)ccn4)cc3)cn2)c1 [Compound P-0022, 2-[4-[2-[(1-methylimidazol-4-yl)amino]pyrimidin-5-yl]phenyl]-N-[4-(trifluoromethyl)-2-pyridyl]acetamide] |
| 0.0001 to 10 µM | 0.0001 to 10 µM | O=C(Cc1ccc(-c2cnc(Nc3cnn(C(F)F)c3)nc2)cc1)Nc1cc(C(F)(F)F)ccn1 [Compound P-0023, 2-[4-[2-[[1-(difluoromethyl)pyrazol-4-yl]amino]pyrimidin-5-yl]phenyl]-N-[4-(trifluoromethyl)-2-pyridyl]acetamide] |
| 0.0001 to 10 µM | – | COc1cc(-c2cc3cc(-c4ccc(CC(=O)Nc5cncc(C(F)(F)F)c5)cc4F)cnc3[nH]2)ccn1 [Compound P-0200, 2-(3-fluoro-4-(2-(2-methoxypyridin-4-yl)-1H-pyrrolo[2,3-b]pyridin-5-yl)phenyl)-N-(5-(trifluoromethyl)pyridin-3-yl)acetamide] |
| 0.0001 to 10 µM | 0.0001 to 10 µM | O=C(Cc1ccc(-c2cnc3[nH]c(-c4ccnc(N5CCOCC5)c4)cc3c2)c(F)c1)Nc1cncc(C(F)(F)F)c1 [Compound P-0201, 2-[3-fluoro-4-[2-(2-morpholino-4-pyridyl)-1H-pyrrolo[2,3-b]pyridin-5-yl]phenyl]-N-[5-(trifluoromethyl)-3-pyridyl]acetamide] |
| 0.0001 to 10 µM | 0.0001 to 10 µM | CCOc1n[nH]c2ncc(-c3ccc(CC(=O)Nc4cnc(OC)c(C(F)(F)F)c4)cc3F)cc12 [Compound P-0202, 2-[4-(3-ethoxy-1H-pyrazolo[3,4-b]pyridin-5-yl)-3-fluoro-phenyl]-N-[6-methoxy-5-(trifluoromethyl)-3-pyridyl]acetamide] |
| 0.0001 to 10 µM | 0.0001 to 10 µM | COc1ncc(NC(=O)Cc2ccc(-c3cnc4[nH]nc(N)c4c3)c(F)c2)cc1C(F)(F)F [Compound P-0203, 2-[4-(3-amino-1H-pyrazolo[3,4-b]pyridin-5-yl)-3-fluoro-phenyl]-N-[6-methoxy-5-(trifluoromethyl)-3-pyridyl]acetamide] |
| 0.0001 to 10 µM | 0.0001 to 10 µM | CC(C)(O)C#Cc1cc2cc(-c3ccc(CC(=O)Nc4cncc(C(F)(F)F)c4)cc3)cnc2[nH]1 [Compound P-0204, 2-[4-[2-(3-hydroxy-3-methyl-but-1-ynyl)-1H-pyrrolo[2,3-b]pyridin-5-yl]phenyl]-N-[5-(trifluoromethyl)-3-pyridyl]acetamide] |
| 0.0001 to 10 µM | 0.0001 to 10 µM | Cn1cc(Nc2ncc(-c3ccc(CC(=O)Nc4cncc(C(F)(F)F)c4)cc3F)cn2)cn1 [Compound P-0205, 2-[3-fluoro-4-[2-[(1-methylpyrazol-4-yl)amino]pyrimidin-5-yl]phenyl]-N-[5-(trifluoromethyl)-3-pyridyl]acetamide] |
| 0.0001 to 10 µM | – | COc1ncc(NC(=O)Cc2ccc(-c3cnc(Nc4cnn(C)c4)nc3)c(F)c2)cc1C(F)(F)F [Compound P-0206, 2-[3-fluoro-4-[2-[(1-methylpyrazol-4-yl)amino]pyrimidin-5-yl]phenyl]-N-[6-methoxy-5-(trifluoromethyl)-3-pyridyl]acetamide] |
| 0.0001 to 10 µM | 0.0001 to 10 µM | Cn1cc(Nc2ncc(-c3cc(F)c(CC(=O)Nc4cncc(C(F)(F)F)c4)cc3F)cn2)cn1 [Compound P-0207, 2-[2,5-difluoro-4-[2-[(1-methylpyrazol-4-yl)amino]pyrimidin-5-yl]phenyl]-N-[5-(trifluoromethyl)-3-pyridyl]acetamide] |
| 0.0001 to 10 µM | 0.0001 to 10 µM | COc1ncc(NC(=O)Cc2cc(F)c(-c3cnc(Nc4cnn(C)c4)nc3)cc2F)cc1C(F)(F)F [Compound P-0208, 2-[2,5-difluoro-4-[2-[(1-methylpyrazol-4-yl)amino]pyrimidin-5-yl]phenyl]-N-[6-methoxy-5-(trifluoromethyl)-3-pyridyl]acetamide] |
| 0.0001 to 10 µM | 0.0001 to 10 µM | O=C(Cc1ccc(-c2cnc(Nc3cnn(C(F)F)c3)nc2)cc1)Nc1cncc(C(F)(F)F)c1 [Compound P-0209, 2-[4-[2-[[1-(difluoromethyl)pyrazol-4-yl]amino]pyrimidin-5-yl]phenyl]-N-[5-(trifluoromethyl)-3-pyridyl]acetamide] |
| 0.0001 to 10 µM | 0.0001 to 10 µM | Cc1ncc(NC(=O)Cc2ccc(-c3cnc(Nc4cnn(C(F)F)c4)nc3)cc2)cc1C(F)(F)F [Compound P-0210, 2-[4-[2-[[1-(difluoromethyl)pyrazol-4-yl]amino]pyrimidin-5-yl]phenyl]-N-[6-methyl-5-(trifluoromethyl)-3-pyridyl]acetamide] |
| 0.0001 to 10 µM | 0.0001 to 10 µM | COc1ncc(NC(=O)Cc2ccc(-c3cnc(Nc4cnn(C(F)F)c4)nc3)cc2)cc1C(F)(F)F [Compound P-0211, 2-[4-[2-[[1-(difluoromethyl)pyrazol-4-yl]amino]pyrimidin-5-yl]phenyl]-N-[6-methoxy-5-(trifluoromethyl)-3-pyridyl]acetamide] |
| 0.0001 to 10 µM | 0.0001 to 10 µM | COc1ncc(NC(=O)Cc2ccc(-c3cnc4[nH]nc(OC)c4c3)cc2)cc1C(F)(F)F [Compound P-0212, 2-[4-(3-methoxy-1H-pyrazolo[3,4-b]pyridin-5-yl)phenyl]-N-[6-methoxy-5-(trifluoromethyl)-3-pyridyl]acetamide] |
| 0.0001 to 10 µM | – | COc1ncc(NC(=O)Cc2ccc(-c3cnc4[nH]c(C#CC(C)(C)C)cc4c3)cc2)cc1C(F)(F)F [Compound P-0219, 2-[4-[2-(3,3-dimethylbut-1-ynyl)-1H-pyrrolo[2,3-b]pyridin-5-yl]phenyl]-N-[6-methoxy-5-(trifluoromethyl)-3-pyridyl]acetamide] |
| 0.0001 to 10 µM | – | COc1ncc(NC(=O)Cc2ccc(-c3cnc4[nH]c(C#Cc5cncn5C)cc4c3)cc2)cc1C(F)(F)F [Compound P-0227, N-[6-methoxy-5-(trifluoromethyl)-3-pyridyl]-2-[4-[2-[2-(3-methylimidazol-4-yl)ethynyl]-1H-pyrrolo[2,3-b]pyridin-5-yl]phenyl]acetamide] |
